# Source: patent US20100160369A1, “S1P1 Agonists and Methods of Making And Using” (EXELIXIS, INC., priority 2008, published 2010)
# Where two headings read alike, the source gives them in different places.
# Target: S1P1 (Homo sapiens, UniProt P21453)
# Test: Tango β-arrestin Recruitment Assay in U2OS cells (Assay 2b)
# Type: cell-based
# Set-up: linker with TEV protease (N1a) cleavage site (C)
# From the text: For the Tango™ β-arrestin recruitment assay, the cytoplasmic C-terminus of S1P1 is tethered to the tTA transcriptional activator with a linker that contains a cleavage site for the N1a protease from tobacco etch virus (TEV protease). The C-terminus of the human β-arrestin2 protein is fused to TEV protease. Binding of an agonist recruits the β-arrestin-TEV fusion protein to the receptor resulting in cleavage of the linker and release of tTA to enter the nucleus and subsequently activate a tTA-dependent luciferase reporter gene.
# Alternatively, U2OS cells expressing the reporter gene and S1P1 (Invitrogen) were added to the wells of a 384-well white opaque bottom assay plate (PerkinElmer) at […] per well. The cells were serum starved for 48 h in Freestyle medium (Invitrogen). Test compounds were tested at maximum concentrations of 1 μM for the agonist assay. Compounds were diluted in DMSO (10 concentration points, 3-fold each) and added to the assay plate at a 1% final DMSO concentration. The efficacy control was 1 μM S1P (Avanti). For each compound, there were duplicate assay plates and each assay plate had duplicate wells per concentration point. The plate was incubated overnight at 37° C. The GeneBLAzer β-lactamase assay reagent (Invitrogen) was added and the plates were incubated for an additional 2 h at room temperature. Fluorescence was measured using an EnVision plate reader (PerkinElmer, Waltham, Mass.) at an excitation wavelength of 409 nm and emission wavelengths of 460 nm and 530 nm. The emission intensity at each wavelength was background subtracted against wells containing medium only and the F460 nm/F530 nm ratio determined for each concentration of the test compounds. Percent activity was calculated as [(test compound ratio−DMSO ratio)/(positive control ratio−DMSO ratio)*100], where the positive control and DMSO ratios are from cells incubated with the efficacy control 1 μM S1P and 1% DMSO, respectively. The percent activities were plotted against compound concentration to determine EC50 using XLFit (IDBS).
# Assay 1 is the CNG cAMP Assay as described in Biological Example 1. Assay 2a and 2b are the Tango™ β-arrestin Recruitment Assay in HEK293 and U2OS cells, respectively, as described in Biological Example 2. Assay 3a is the hS1P1R GTPγS Binding Assay as described in Biological Example 3. Assay 3b is the GTP-Eu Binding Assay as described in Biological Example 3. EC50's were measured unless otherwise noted. […] In the table, “nt” means the Compound was not tested and “no” means the compound was tested but had no measurable activity under the assay conditions employed.
# [1] = Tango β-arrestin Recruitment Assay, read-out: Assay 2b EC50
# S1P1, sequence (P21453 whole entry): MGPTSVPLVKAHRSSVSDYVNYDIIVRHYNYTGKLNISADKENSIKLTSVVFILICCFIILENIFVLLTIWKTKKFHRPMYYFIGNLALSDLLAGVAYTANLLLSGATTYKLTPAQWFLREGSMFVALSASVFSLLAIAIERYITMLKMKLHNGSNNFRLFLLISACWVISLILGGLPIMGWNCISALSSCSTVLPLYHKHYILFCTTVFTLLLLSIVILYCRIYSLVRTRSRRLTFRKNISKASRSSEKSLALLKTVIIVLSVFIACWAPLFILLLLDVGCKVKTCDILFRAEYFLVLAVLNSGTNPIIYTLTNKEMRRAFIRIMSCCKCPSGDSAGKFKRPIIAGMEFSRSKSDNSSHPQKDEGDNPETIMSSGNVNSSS
# S1P1, sequence (P32121 whole entry partner): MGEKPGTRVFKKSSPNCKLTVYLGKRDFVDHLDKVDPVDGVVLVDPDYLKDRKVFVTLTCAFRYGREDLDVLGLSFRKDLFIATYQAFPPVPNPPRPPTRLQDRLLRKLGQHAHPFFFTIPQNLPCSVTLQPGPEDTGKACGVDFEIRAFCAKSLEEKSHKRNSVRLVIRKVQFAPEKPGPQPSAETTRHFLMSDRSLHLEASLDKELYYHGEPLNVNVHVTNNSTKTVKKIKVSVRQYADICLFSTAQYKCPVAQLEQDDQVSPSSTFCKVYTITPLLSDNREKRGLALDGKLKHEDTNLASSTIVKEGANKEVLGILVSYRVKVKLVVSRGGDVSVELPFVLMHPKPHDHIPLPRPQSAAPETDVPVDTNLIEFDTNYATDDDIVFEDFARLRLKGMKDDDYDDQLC
Compound,EC50 [1] [µM],other results
"CC(O)(COc1cc(Cl)c(-c2noc(-c3cn4cc(C(F)(F)F)cc(Cl)c4n3)n2)cc1Cl)C(=O)O (stereo not shown) [Example 327, 3-[(2,5-dichloro-4-{5-[8-chloro-6-(trifluoromethyl)imidazo[1,2-a]pyridin-2-yl]-1,2,4-oxadiazol-3-yl}phenyl)oxy]-2-hydroxy-2-methylpropanoic acid]",≤ 0.1,
"COc1ccc2nc(-c3nnc(-c4cc(F)c(OC[C@@H](N)CO)cc4Cl)s3)cn2c1 [Example 310, (2S)-2-amino-3-[(5-chloro-2-fluoro-4-{5-[6-(methyloxy)imidazo[1,2-a]pyridin-2-yl]-1,3,4-thiadiazol-2-yl}phenyl)oxy]propan-1-ol]",≤ 0.1,
O=C(CO)COc1cc(Cl)c(-c2noc(-c3cn4cc(C(F)(F)F)cc(Cl)c4n3)n2)cc1Cl [Entry 34],≤ 0.1,
O=P(O)(O)OCC(O)COc1cc(Cl)c(-c2noc(-c3cn4cc(C(F)(F)F)cc(Cl)c4n3)n2)cc1Cl (stereo not shown) [Entry 53],≤ 0.1,
"N[C@@H](CO)COc1cc(Cl)c(-c2nnc(-c3cn4cc(C(F)(F)F)cc(Cl)c4n3)s2)cc1Cl [Example 201, (2S)-2-amino-3-[(2,5-dichloro-4-{5-[8-chloro-6-(trifluoromethyl)imidazo[1,2-a]pyridin-2-yl]-1,3,4-thiadiazol-2-yl}phenyl)oxy]propan-1-ol]",≤ 0.1,
"NC(CO)COc1cc(Cl)c(-c2nnc(-c3cn4cc(C(F)(F)F)cc(Cl)c4n3)s2)cc1Cl (stereo not shown) [Example 220, 2-amino-3-[(2,5-dichloro-4-{5-[8-chloro-6-(trifluoromethyl)imidazo[1,2-a]pyridin-2-yl]-1,3,4-thiadiazol-2-yl}phenyl)oxy]propan-1-ol]",≤ 0.1,
"NC(CO)COc1cc(Cl)c(-c2nnc(-c3cn4cc(C(F)(F)F)cc(Cl)c4n3)o2)cc1F (stereo not shown) [Example 222, 2-amino-3-[(5-chloro-4-{5-[8-chloro-6-(trifluoromethyl)imidazo[1,2-a]pyridin-2-yl]-1,3,4-oxadiazol-2-yl}-2-fluorophenyl)oxy]propan-1-ol]",≤ 0.1,
"Cc1cc(CCC(=O)O)c(Cl)cc1-c1nc(-c2cn3cc(I)cc(Cl)c3n2)no1 [Example 297, 3-{2-chloro-4-[3-(8-chloro-6-iodoimidazo[1,2-a]pyridin-2-yl)-1,2,4-oxadiazol-5-yl]-5-methylphenyl}propanoic acid]",≤ 0.1,
"CS(=O)(=O)NCc1ccc(-c2nnc(-c3cn4cc(C(F)(F)F)cc(Cl)c4n3)s2)c(Cl)c1 [Example 332, N-[(3-chloro-4-{5-[8-chloro-6-(trifluoromethyl)imidazo[1,2-a]pyridin-2-yl]-1,3,4-thiadiazol-2-yl}phenyl)methyl]methanesulfonamide]",≤ 0.1,
"CC(O)COc1cc(Cl)c(-c2nc(-c3cn4cc(C(F)(F)F)cc(Cl)c4n3)no2)cc1F (stereo not shown) [Example 184, 1-[(5-chloro-4-{3-[8-chloro-6-(trifluoromethyl)imidazo[1,2-a]pyridin-2-yl]-1,2,4-oxadiazol-5-yl}-2-fluorophenyl)oxy]propan-2-ol]",≤ 0.1,
"CC(=O)COc1cc(Cl)c(-c2noc(-c3cn4cc(C(F)(F)F)cc(Br)c4n3)n2)cc1Cl [Example 305, 1-[(4-{5-[8-bromo-6-(trifluoromethyl)imidazo[1,2-a]pyridin-2-yl]-1,2,4-oxadiazol-3-yl}-2,5-dichlorophenyl)oxy]propan-2-one]",≤ 0.1,
NC(COc1cc(Cl)c(-c2noc(-c3cn4cc(C(F)(F)F)cc(Cl)c4n3)n2)cc1Cl)COP(=O)(O)O (stereo not shown) [Entry 15],≤ 0.1,
"NC(CO)COc1cc(Cl)c(-c2nnc(-c3cn4cc(C(F)(F)F)cc(Cl)c4n3)o2)cc1Cl (stereo not shown) [Example 202, 2-amino-3-[(2,5-dichloro-4-{5-[8-chloro-6-(trifluoromethyl)imidazo[1,2-a]pyridin-2-yl]-1,3,4-oxadiazol-2-yl}phenyl)oxy]propan-1-ol]",,"EC50 (Tango β-arrestin, footnote 1: Relative EC50 was measured, read-out: Assay 2b Relative EC50): 0.1 to 0.5 µM"
"N[C@@H](CO)COc1cc(Cl)c(-c2nnc(-c3cn4cc(C(F)(F)F)cc(Cl)c4n3)s2)cc1F [Example 335, (2S)-2-Amino-3-[(5-chloro-4-{5-[8-chloro-6-(trifluoromethyl)imidazo[1,2-a]pyridin-2-yl]-1,3,4-thiadiazol-2-yl}-2-fluorophenyl)oxy]propan-1-ol]",≤ 0.1,
"Cc1cc(CCC(=O)O)c(Cl)cc1-c1nc(-c2cn3cc(C(F)(F)F)cc(Cl)c3n2)no1 [Example 329, 3-(2-chloro-4-{3-[8-chloro-6-(trifluoromethyl)imidazo[1,2-a]pyridin-2-yl]-1,2,4-oxadiazol-5-yl}-5-methylphenyl)propanoic acid]",≤ 0.1,
"Oc1cc(Cl)c(-c2nnc(-c3cn4cc(C(F)(F)F)cc(Cl)c4n3)s2)cc1F [Example 338, 5-chloro-4-{5-[8-chloro-6-(trifluoromethyl)imidazo[1,2-a]pyridin-2-yl]-1,3,4-thiadiazol-2-yl}-2-fluorophenol]",0.1 to 0.5,
CC(N)(CO)COc1cc(Cl)c(-c2nnc(-c3cn4cc(C(F)(F)F)cc(Cl)c4n3)s2)cc1F (stereo not shown) [Entry 46],≤ 0.1,
"O=C(O)C1CC1c1cc(Cl)c(-c2nnc(-c3cn4cc(C(F)(F)F)cc(Cl)c4n3)s2)cc1Cl (stereo not shown) [Example 320, 2-(2,5-dichloro-4-{5-[8-chloro-6-(trifluoromethyl)imidazo[1,2-a]pyridin-2-yl]-1,3,4-thiadiazol-2-yl}phenyl)cyclopropanecarboxylic acid]",≤ 0.1,
CC(C)(CO)Oc1cc(Cl)c(-c2noc(-c3cn4cc(C(F)(F)F)cc(Cl)c4n3)n2)cc1Cl [Entry 26],,"EC50 (Tango β-arrestin Recruitment Assay, relative EC50 was measured (footnote 1), read-out: Assay 2b Relative EC50): 0.1 to 0.5 µM"
"O=C(O)C1CC1c1cc(Cl)c(-c2noc(-c3cn4cc(C(F)(F)F)cc(Br)c4n3)n2)cc1Cl (stereo not shown) [Example 306, 2-(4-{5-[8-bromo-6-(trifluoromethyl)imidazo[1,2-a]pyridin-2-yl]-1,2,4-oxadiazol-3-yl}-2,5-dichlorophenyl)cyclopropanecarboxylic acid]",≤ 0.1,
"C[C@@H](COc1cc(Cl)c(-c2noc(-c3cn4cc(C(F)(F)F)cc(Br)c4n3)n2)cc1Cl)OP(=O)(O)O [Example 325, (1S)-2-[(4-{5-[8-bromo-6-(trifluoromethyl)imidazo[1,2-a]pyridin-2-yl]-1,2,4-oxadiazol-3-yl}-2,5-dichlorophenyl)oxy]-1-methylethyl dihydrogen phosphate]",≤ 0.1,
"NC(CO)COc1cc(Cl)c(-c2nnc(-c3cn4cc(Br)ccc4n3)s2)cc1F (stereo not shown) [Example 339, 2-amino-3-({4-[5-(6-bromoimidazo[1,2-a]pyridin-2-yl)-1,3,4-thiadiazol-2-yl]-5-chloro-2-fluorophenyl}oxy)propan-1-ol]",≤ 0.1,
COc1cc(Cl)c(-c2noc(-c3cn4cc(C(F)(F)F)cc(Cl)c4n3)n2)cc1Cl [Example 341],,"EC50 (Tango β-arrestin Recruitment Assay, footnote 1: Relative EC50 was measured, read-out: Assay 2b relative EC50): 0.5 to 1 µM"
"NC(CO)COc1cc(Cl)c(-c2nnc(-c3cn4ccc(C(F)(F)F)cc4n3)s2)cc1F (stereo not shown) [Example 421, 2-amino-3-[(5-chloro-2-fluoro-4-{5-[7-(trifluoromethyl)imidazo[1,2-a]pyridin-2-yl]-1,3,4-thiadiazol-2-yl}phenyl)oxy]propan-1-ol]",0.1 to 0.5,
"NC(CO)(CO)CCc1cc(Cl)c(-c2noc(-c3cn4cc(C(F)(F)F)cc(Cl)c4n3)n2)cc1F [Example 154, 2-amino-2-[2-(5-chloro-4-{5-[8-chloro-6-(trifluoromethyl)imidazo[1,2-a]pyridin-2-yl]-1,2,4-oxadiazol-3-yl}-2-fluorophenyl)ethyl]propane-1,3-diol]",≤ 0.1,
"NC(CO)COc1cc(Cl)c(-c2nnc(-c3cn4cc(I)ccc4n3)s2)cc1F (stereo not shown) [Example 102, 2-amino-3-({5-chloro-2-fluoro-4-[5-(6-iodoimidazo[1,2-a]pyridin-2-yl)-1,3,4-thiadiazol-2-yl]phenyl}oxy)propan-1-ol]",≤ 0.1,
"O=C(O)C1CC1c1cc(Cl)c(-c2nc(-c3cn4cc(C(F)(F)F)cc(Cl)c4n3)no2)cc1Cl (stereo not shown) [Example 299, 2-(2,5-dichloro-4-{3-[8-chloro-6-(trifluoromethyl)imidazo[1,2-a]pyridin-2-yl]-1,2,4-oxadiazol-5-yl}phenyl)cyclopropanecarboxylic acid]",0.1 to 0.5,
OCC(O)CNc1cc(Cl)c(-c2noc(-c3cn4cc(C(F)(F)F)cc(Cl)c4n3)n2)cc1Cl (stereo not shown) [Entry 29],≤ 0.1,
